{
  "source": "patent US11713306B2",
  "about": "“5-substituted difluoropiperidine compounds with blood-brain barrier penetrable capability” (Wayshine Biopharm Holding Limited, priority 2018, dated 2023)",
  "data": [
    {"biological_target": "EGFR (Homo sapiens (Human), UniProt P00533)", "sequence (P00533 25-1210, species assumed)": "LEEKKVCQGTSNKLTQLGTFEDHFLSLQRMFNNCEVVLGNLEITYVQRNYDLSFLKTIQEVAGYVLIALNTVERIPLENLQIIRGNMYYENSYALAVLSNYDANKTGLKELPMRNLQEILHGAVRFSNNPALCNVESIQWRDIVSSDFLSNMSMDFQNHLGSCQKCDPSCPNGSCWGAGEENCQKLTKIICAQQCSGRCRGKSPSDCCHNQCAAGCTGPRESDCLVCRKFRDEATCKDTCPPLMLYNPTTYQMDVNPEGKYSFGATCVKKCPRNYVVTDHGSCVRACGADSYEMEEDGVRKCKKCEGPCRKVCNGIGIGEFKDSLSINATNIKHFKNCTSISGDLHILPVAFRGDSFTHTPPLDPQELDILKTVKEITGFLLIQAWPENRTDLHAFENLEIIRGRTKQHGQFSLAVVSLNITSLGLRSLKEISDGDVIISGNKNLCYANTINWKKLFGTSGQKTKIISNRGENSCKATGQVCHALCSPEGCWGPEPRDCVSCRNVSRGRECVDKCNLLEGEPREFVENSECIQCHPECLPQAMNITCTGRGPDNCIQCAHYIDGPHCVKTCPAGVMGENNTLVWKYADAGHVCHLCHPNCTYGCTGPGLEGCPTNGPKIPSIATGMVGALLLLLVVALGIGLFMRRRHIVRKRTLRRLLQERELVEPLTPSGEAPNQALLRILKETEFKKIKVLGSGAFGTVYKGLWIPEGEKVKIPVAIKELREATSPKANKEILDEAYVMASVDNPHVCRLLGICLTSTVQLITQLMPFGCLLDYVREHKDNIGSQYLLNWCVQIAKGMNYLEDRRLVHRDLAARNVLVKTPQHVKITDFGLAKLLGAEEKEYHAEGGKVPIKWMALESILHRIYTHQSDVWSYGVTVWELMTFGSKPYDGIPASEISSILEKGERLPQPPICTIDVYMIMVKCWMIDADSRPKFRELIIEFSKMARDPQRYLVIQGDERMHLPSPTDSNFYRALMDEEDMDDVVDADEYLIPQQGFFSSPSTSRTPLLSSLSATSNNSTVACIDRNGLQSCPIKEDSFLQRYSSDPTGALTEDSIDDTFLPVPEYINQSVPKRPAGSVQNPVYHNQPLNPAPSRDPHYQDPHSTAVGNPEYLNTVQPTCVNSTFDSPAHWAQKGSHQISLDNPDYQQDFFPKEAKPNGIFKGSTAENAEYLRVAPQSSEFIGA", "assay": "Kinase inhibition assay (Caliper, FAM-labeled peptide substrate)", "format": "biochemical", "settings": "not given", "description": "(§1) 2.5 times of the kinase (VEGFR2 or EGFR or FYN) buffer solution was added to the compound diluted in equal concentration in the 384-well plate and incubated at 22-27° C. for 10 minutes, then 2.5 times of the FAM-labeled peptide substrate and ATP buffer solution were added therein and incubated at 28° C., and then the stop buffer solution was added to stop the reaction. The data was read by Caliper and the following formula was used to calculate the IC50 inhibition: Percent inhibition=(max-conversion)/(max-min)*100. Staurosporine was used as a control. In kinase inhibition assays, some of the compounds of the present invention are effective in inhibiting VEGFR2/FYN/EGFR, so they have the potential for treating or preventing cancer or central nervous system diseases (Table 1).", "units": {"IC50": "µM"}, "values": [
      {"compound": "C#Cc1cccc(Nc2ncnc3cc(OC)cc(OC4CCN(C)CC4(F)F)c23)c1F", "note": "(racemic) [Compound 11, (R/S)-5-((3,3-difluoro-1-methylpiperidin-4-yl)oxy)-N-(3-ethynyl-2-fluorophenyl)-7-methoxyquinazolin-4-amine]", "IC50": "< 0.01"},
      {"compound": "C#Cc1c(F)ccc(Nc2ncnc3cc(OC)cc(OC4CCN(C)CC4(F)F)c23)c1F", "note": "(racemic) [Compound 16, (R/S)-5-((3,3-difluoro-1-methylpiperidin-4-yl)oxy)-N-(3-ethynyl-2,4-difluorophenyl)-7-methoxyquinazolin-4-amine]", "IC50": "< 0.01"},
      {"compound": "C#Cc1cccc(Nc2ncnc3cc(OC)cc(O[C@H]4CCN(C)CC4(F)F)c23)c1F", "note": "(single isomer, unassigned) [Compound 43]", "IC50": "< 0.01"},
      {"compound": "C#Cc1cccc(Nc2ncnc3cc(OC)cc(O[C@@H]4CCN(C)CC4(F)F)c23)c1F", "note": "[Compound 27, (R)-5-((3,3-difluoro-1-methylpiperidin-4-yl)oxy)-N-(3-ethynyl-2-fluorophenyl)-7-methoxyquinazolin-4-amine]", "IC50": "< 0.01"},
      {"compound": "C#Cc1c(F)ccc(Nc2ncnc3cc(OC)cc(O[C@@H]4CCN(C)CC4(F)F)c23)c1F", "note": "[Compound 32, (R)-5-((3,3-difluoro-1-methylpiperidin-4-yl)oxy)-N-(3-ethynyl-2,4-difluorophenyl)-7-methoxyquinazolin-4-amine]", "IC50": "< 0.01"},
      {"compound": "C#Cc1c(F)ccc(Nc2ncnc3cc(OC)cc(O[C@H]4CCN(C)CC4(F)F)c23)c1F", "note": "[Compound 48, (S)-5-((3,3-difluoro-1-methylpiperidin-4-yl)oxy)-N-(3-ethynyl-2,4-difluorophenyl)-7-methoxyquinazolin-4-amine]", "IC50": "< 0.01"}
    ]},
    {"biological_target": "FYN (Homo sapiens (Human), UniProt P06241)", "sequence (P06241 whole entry)": "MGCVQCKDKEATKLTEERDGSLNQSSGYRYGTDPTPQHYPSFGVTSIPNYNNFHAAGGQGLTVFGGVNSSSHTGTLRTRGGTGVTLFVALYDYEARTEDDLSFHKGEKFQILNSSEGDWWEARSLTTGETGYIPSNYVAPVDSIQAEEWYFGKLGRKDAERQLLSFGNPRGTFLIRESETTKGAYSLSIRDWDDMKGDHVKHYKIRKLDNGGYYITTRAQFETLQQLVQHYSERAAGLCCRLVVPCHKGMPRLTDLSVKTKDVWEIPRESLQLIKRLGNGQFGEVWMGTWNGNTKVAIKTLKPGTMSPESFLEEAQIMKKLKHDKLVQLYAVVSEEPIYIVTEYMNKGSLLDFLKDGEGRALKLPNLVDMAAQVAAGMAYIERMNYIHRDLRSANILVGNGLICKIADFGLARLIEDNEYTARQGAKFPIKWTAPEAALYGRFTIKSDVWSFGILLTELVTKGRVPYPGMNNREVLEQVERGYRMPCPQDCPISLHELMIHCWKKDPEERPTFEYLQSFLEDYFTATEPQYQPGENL", "assay": "Kinase inhibition assay (Caliper, FAM-labeled peptide substrate)", "format": "biochemical", "settings": "not given", "description": "as §1", "units": {"IC50": "µM"}, "values": [
      {"compound": "COc1cc(O[C@H]2CCN(C)CC2(F)F)c2c(Nc3c(Cl)ccc4c3OCO4)ncnc2c1", "note": "[Compound 44, (S)—N-(5-chlorobenzo[d] [1,3]dioxolcyclopenten-4-yl)-5-((3,3-difluoro-1-methylpiperidin-4-yl)oxy)-7-deuterated methoxyquinazolin-4-amine]", "IC50": "< 0.1"},
      {"compound": "COc1cc(O[C@H]2CCN(C3COC3)CC2(F)F)c2c(Nc3c(F)ccc4c3OCO4)ncnc2c1", "note": "[Compound 45, (S)-5-((3,3-difluoro-1-(oxetane-3-yl)piperidin-4-yl)oxy)-N-(5-fluorobenzo[d] [1,3]dioxolcyclopenten-4-yl)-7-methoxyquinazolin-4-amine]", "IC50": "< 0.1"},
      {"compound": "COc1cc(O[C@H]2CCN(C3COC3)CC2(F)F)c2c(Nc3c(Cl)ccc4c3OCO4)ncnc2c1", "note": "[Compound 46, (S)-5-((3,3-difluoro-1-(oxetane-3-yl)piperidin-4-yl)oxy)-N-(5-chlorobenzo[d][1,3]dioxolcyclopenten-4-yl)-7-methoxyquinazolin-4-amine]", "IC50": "< 0.1"},
      {"compound": "COc1cc(O[C@H]2CCN(C(C)C)CC2(F)F)c2c(Nc3c(F)ccc4c3OCO4)ncnc2c1", "note": "[Compound 47, (S)-5-((3,3-difluoro-1-isopropylpiperidin-4-yl)oxy)-N-(5-fluorobenzo[d][1,3]dioxolcyclopenten-4-yl)-7-methoxyquinazolin-4-amine]", "IC50": "< 0.1"}
    ]},
    {"biological_target": "VEGFR2 (Homo sapiens (Human), UniProt P35968)", "sequence (P35968 20-1356)": "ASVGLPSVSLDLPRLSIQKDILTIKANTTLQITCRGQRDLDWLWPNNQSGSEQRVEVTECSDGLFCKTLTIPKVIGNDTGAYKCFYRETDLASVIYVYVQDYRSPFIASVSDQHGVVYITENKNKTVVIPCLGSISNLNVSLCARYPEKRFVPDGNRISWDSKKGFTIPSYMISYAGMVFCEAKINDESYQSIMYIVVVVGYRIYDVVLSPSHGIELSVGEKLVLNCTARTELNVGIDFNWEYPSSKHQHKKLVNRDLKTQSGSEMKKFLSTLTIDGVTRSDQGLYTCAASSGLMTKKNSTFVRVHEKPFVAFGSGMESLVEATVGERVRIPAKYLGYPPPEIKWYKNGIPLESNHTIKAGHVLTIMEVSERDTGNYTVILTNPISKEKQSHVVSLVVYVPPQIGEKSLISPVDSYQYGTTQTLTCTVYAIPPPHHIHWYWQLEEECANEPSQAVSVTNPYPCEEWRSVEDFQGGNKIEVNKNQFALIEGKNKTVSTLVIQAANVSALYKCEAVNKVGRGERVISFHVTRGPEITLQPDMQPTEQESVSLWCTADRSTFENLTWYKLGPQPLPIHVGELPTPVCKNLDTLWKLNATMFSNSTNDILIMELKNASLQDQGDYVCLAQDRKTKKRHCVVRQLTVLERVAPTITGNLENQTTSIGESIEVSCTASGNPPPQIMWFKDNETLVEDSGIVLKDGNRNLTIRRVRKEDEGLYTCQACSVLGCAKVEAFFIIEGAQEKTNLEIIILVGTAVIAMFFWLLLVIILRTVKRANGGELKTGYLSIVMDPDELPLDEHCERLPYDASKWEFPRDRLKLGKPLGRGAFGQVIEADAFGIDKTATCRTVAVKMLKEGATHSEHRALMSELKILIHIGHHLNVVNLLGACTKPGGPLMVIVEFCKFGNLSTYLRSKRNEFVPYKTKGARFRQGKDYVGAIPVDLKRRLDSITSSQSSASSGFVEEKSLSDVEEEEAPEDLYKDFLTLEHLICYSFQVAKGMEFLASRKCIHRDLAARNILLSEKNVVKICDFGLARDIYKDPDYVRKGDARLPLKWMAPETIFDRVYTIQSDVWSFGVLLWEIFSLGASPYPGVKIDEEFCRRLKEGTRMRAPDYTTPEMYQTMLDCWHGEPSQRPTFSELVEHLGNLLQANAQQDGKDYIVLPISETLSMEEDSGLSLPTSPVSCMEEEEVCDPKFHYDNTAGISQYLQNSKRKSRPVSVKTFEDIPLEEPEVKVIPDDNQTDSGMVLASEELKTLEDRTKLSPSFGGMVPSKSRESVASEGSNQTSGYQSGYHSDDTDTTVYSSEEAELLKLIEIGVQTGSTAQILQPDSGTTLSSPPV", "assay": "Kinase inhibition assay (Caliper, FAM-labeled peptide substrate)", "format": "biochemical", "settings": "not given", "description": "as §1", "units": {"IC50": "µM"}, "values": [
      {"compound": "COc1cc(OC2CCN(C)CC2(F)F)c2c(Oc3ccc4[nH]c(C)cc4c3F)ncnc2c1", "note": "(racemic) [Compound 1, (R/S)-5-((3,3-difluoro-1-methylpiperidin-4-yl)oxy)-4-((4-fluoro-2-methyl-1H-indole-5-yl)oxy)-7-methoxyquinazoline]", "IC50": "< 0.01"},
      {"compound": "COc1cc(OC2CCN(C)CC2(F)F)c2c(Oc3ccc4[nH]c(C)cc4c3F)ncnc2c1", "note": "(racemic) [Compound 2, (R/S)-5-((3,3-difluoro-1-methylpiperidin-4-yl)oxy)-4-((4-fluoro-2-methyl-1H-indole-5-yl)oxy)-7-deuterated methoxyquinazoline]", "IC50": "< 0.01"},
      {"compound": "COc1cc(OC2CCN(C)CC2(F)F)c2c(Oc3cc(F)c4[nH]c(C)cc4c3F)ncnc2c1", "note": "(racemic) [Compound 3, (R/S)-5-((3,3-difluoro-1-methylpiperidin-4-yl)oxy)-4-((4,7-difluoro-2-methyl-1H-indol-5-yl)oxy)-7-methoxyquinazoline]", "IC50": "< 0.01"},
      {"compound": "COc1cc(O[C@@H]2CCN(C)CC2(F)F)c2c(Oc3ccc4[nH]c(C)cc4c3F)ncnc2c1", "note": "[Compound 17, (R)-5-((3,3-difluoro-1-methylpiperidin-4-yl)oxy)-4-((4-fluoro-2-methyl-1H-indole-5-yl)oxy)-7-methoxyquinazoline]", "IC50": "< 0.01"},
      {"compound": "COc1cc(O[C@@H]2CCN(C)CC2(F)F)c2c(Oc3ccc4[nH]c(C)cc4c3F)ncnc2c1", "note": "[Compound 18, (R)-5-((3,3-difluoro-1-methylpiperidin-4-yl)oxy)-4-((4-fluoro-2-methyl-1H-indole-5-yl)oxy)-7-deuterated methoxyquinazoline]", "IC50": "< 0.01"},
      {"compound": "COc1cc(O[C@@H]2CCN(C)CC2(F)F)c2c(Oc3cc(F)c4[nH]c(C)cc4c3F)ncnc2c1", "note": "[Compound 19, (R)-5-((3,3-difluoro-1-methylpiperidin-4-yl)oxy)-4-((4,7-difluoro-2-methyl-1H-indol-5-yl)oxy)-7-methoxyquinazoline]", "IC50": "< 0.01"},
      {"compound": "COc1cc(O[C@H]2CCN(C)CC2(F)F)c2c(Oc3ccc4[nH]c(C)cc4c3F)ncnc2c1", "note": "[Compound 33, (S)-5-((3,3-difluoro-1-methylpiperidin-4-yl)oxy)-4-((4-fluoro-2-methyl-1H-indole-5-yl)oxy)-7-methoxyquinazoline]", "IC50": "< 0.01"},
      {"compound": "COc1cc(O[C@H]2CCN(C)CC2(F)F)c2c(Oc3ccc4[nH]c(C)cc4c3F)ncnc2c1", "note": "[Compound 34, (S)-5-((3,3-difluoro-1-methylpiperidin-4-yl)oxy)-4-((4-fluoro-2-methyl-1H-indole-5-yl)oxy)-7-deuterated methoxyquinazoline]", "IC50": "< 0.01"},
      {"compound": "COc1cc(O[C@H]2CCN(C)CC2(F)F)c2c(Oc3cc(F)c4[nH]c(C)cc4c3F)ncnc2c1", "note": "[Compound 35, (S)-5-((3,3-difluoro-1-methylpiperidin-4-yl)oxy)-4-((4,7-difluoro-2-methyl-1H-indol-5-yl)oxy)-7-methoxyquinazoline]", "IC50": "< 0.01"}
    ]},
    {"test_system": "SKOV3 tumor cells", "assay": "SKOV3 tumor cell mouse subcutaneous animal model", "format": "in vivo", "settings": "monotherapy, 10 mg/kg, oral, twice a day, four weeks; vs control group", "description": "(§2) In the efficacy experiment of SKOV3 tumor cell mouse subcutaneous animal model (FIG. 1), the drug was administered on the 30th day after the tumor cells were planted and the drug administration was lasted for four weeks. […] In the efficacy experiment of the PC-9Luc tumor cell mouse intracranial animal model (FIG. 2), the drug was administered on the 10th day after the tumor cells were planted and the drug administration was lasted for three weeks. The second group of compound 1 was used as monotherapy, 10 mg/kg, oral dosing, twice a day; the third group of EGFR inhibitors (chemical name: (R)-6-[(3,3-difluoro-1-methylpiperidin-4-yl)oxy]-nitrogen-(3-ethynyl-2-fluorophenyl)-7-methoxyquinazolin-4-amine) was used as monotherapy, 3 mg/kg, oral dosing, twice a day; the fourth group of compound 1 combined with EGFR inhibitors.", "values": [
      {"compound": "COc1cc(OC2CCN(C)CC2(F)F)c2c(Oc3ccc4[nH]c(C)cc4c3F)ncnc2c1", "note": "(racemic) [Compound 1, (R/S)-5-((3,3-difluoro-1-methylpiperidin-4-yl)oxy)-4-((4-fluoro-2-methyl-1H-indole-5-yl)oxy)-7-methoxyquinazoline]", "inhibition of tumor growth": "good inhibition of tumor growth"}
    ]},
    {"test_system": "SKOV3 tumor cells", "assay": "SKOV3 tumor cell mouse subcutaneous animal model", "format": "in vivo", "settings": "monotherapy, 20 mg/kg, oral, twice a day, four weeks; vs control group", "description": "as §2", "values": [
      {"compound": "COc1cc(OC2CCN(C)CC2(F)F)c2c(Oc3ccc4[nH]c(C)cc4c3F)ncnc2c1", "note": "(racemic) [Compound 1, (R/S)-5-((3,3-difluoro-1-methylpiperidin-4-yl)oxy)-4-((4-fluoro-2-methyl-1H-indole-5-yl)oxy)-7-methoxyquinazoline]", "inhibition of tumor growth": "good inhibition of tumor growth"}
    ]},
    {"test_system": "PC-9Luc tumor cells", "assay": "PC-9Luc tumor cell mouse intracranial animal model", "format": "in vivo", "settings": "monotherapy, 3 mg/kg, oral, twice a day, three weeks; vs control group", "description": "as §2", "values": [
      {"compound": "C#Cc1cccc(Nc2ncnc3cc(OC)c(O[C@@H]4CCN(C)CC4(F)F)cc23)c1F", "note": "[EGFR inhibitor, (R)-6-[(3,3-difluoro-1-methylpiperidin-4-yl)oxy]-nitrogen-(3-ethynyl-2-fluorophenyl)-7-methoxyquinazolin-4-amine]", "inhibition of intracranial tumor growth": "good inhibition on intracranial tumor growth"}
    ]}
  ]
}
